# Measurements from US20230167505A1, “CIRCULATING TUMOR DNA AS A BIOMARKER FOR LEUKEMIA TREATMENT” (Cardiff Oncology, Inc., priority 2020, published 2023).
# Values joined by “and” are separate entries in the source; they are usually repeats but may differ in a detail not shown here. Equal values may be shown once.
# Key:
# [1] = tested on: patients with advanced/metastatic solid tumors; conditions: single agent, phase I; cited from earlier work
# [2] = tested on: patients with relapsed or refractory (R/R) AML
# Experimental: Treatment plan and study design: Onvansertib was administered orally, in escalating doses, on days 1 through 5 in combination with either LDAC (arm A, 20 mg/m^2 subcutaneously once daily on days 1 through 10) or decitabine (arm B, 20 mg/m^2 intravenously over 1 hour on days 1 through 5) in a 28-day cycle. […] The primary objectives were to evaluate dose-limiting toxicities (DLTs) and the maximum tolerated dose (MTD) or recommended phase 2 dose (RP2D) of onvansertib. […] Each arm followed a standard 3+3 dose-escalation design, in which onvansertib dose was escalated by 50% increments. […] If a DLT was reported, an additional 3 patients were treated at that dose. If ≥2 patients experienced a DLT, the dose was considered nontolerated, and lower doses were explored in subsequent cohorts. […] The MTD was defined as the highest dose achieved at which no more than one of six subjects experienced a DLT. The RP2D was determined based on the assessment of safety, pharmacokinetics, and preliminary efficacy in subjects treated at a dose cleared for safety. For the study, the primary endpoint was to evaluate first-cycle dose-limiting toxicities and the MTD. Secondary and exploratory endpoints included safety, pharmacokinetics, antileukemic activity, and response biomarkers.
# Safety: Patients were evaluable for safety if they had received at least one dose of onvansertib. […] Investigators assessed causality as either unrelated, unlikely, possibly, probably, or definitely related to study drugs. DLTs (defined in Table 1) were evaluated during the first cycle of treatment.
# [3] = all patients (N = 40), onvansertib + LDAC or decitabine, patients n (%)
# [4] = phase Ib, onvansertib + LDAC or decitabine
smiles,measurement,setting,value
"CN1CCN(c2ccc(OC(F)(F)F)c(Nc3ncc4c(n3)-c3c(c(C(N)=O)nn3CCO)CC4)c2)CC1 [onvansertib, 1-(2-hydroxyethyl)-8-{[5-(4-methylpiperazin-1-yl)-2-(trifluoromethoxy)phenyl]amino}-4,5-dihydro-1H-pyrazolo [4,3-h] quinazoline-3-carboxamide]",primary dose-limiting toxicities,[1],neutropenia and thrombocytopenia
same,recovery from hematologic toxicities,[1],≤ 3 weeks
same,G3 stomatitis possibly related to onvansertib,"[2]; 3 patients: one at 60 mg/m^2, two at 90 mg/m^2",8%
same,patients discontinued from therapy because of treatment-related AEs,"[2]; G2 fatigue, G3 mucositis (DLT), G4 rash (DLT)",Three
same,"Treatment-emergent AE: Anemia, All grades (%)",[2]; [3],15 (37.5) %
same,"Treatment-emergent AE: Anemia, Grade 1-2 (%)",[2]; [3],1 (2.5) %
same,"Treatment-emergent AE: Blood bilirubin increased, All grades (%)",[2]; [3],4 (10) %
same,"Treatment-emergent AE: Blood bilirubin increased, Grace 3-4 (%)",[2]; [3],1 (2.5) %
same,"Treatment-emergent AE: Blood bilirubin increased, Grade 1-2 (%)",[2]; [3],3 (7.5) %
same,"Treatment-emergent AE: Constipation, All grades (%)",[2]; [3],6 (15) %
same,"Treatment-emergent AE: Constipation, Grade 1-2 (%)",[2]; [3],6 (15) %
same,"Treatment-emergent AE: Cough, All grades (%)",[2]; [3],6 (15) %
same,"Treatment-emergent AE: Cough, Grade 1-2 (%)",[2]; [3],6 (15) %
same,"Treatment-emergent AE: Decreased appetite, All grades (%)",[2]; [3],6 (15) %
same,"Treatment-emergent AE: Decreased appetite, Grade 1-2 (%)",[2]; [3],6 (15) %
same,"Treatment-emergent AE: Diarrhea, All grades (%)",[2]; [3],8 (20) %
same,"Treatment-emergent AE: Diarrhea, Grade 1-2 (%)",[2]; [3],8 (20) %
same,"Treatment-emergent AE: Dizziness, All grades (%)",[2]; [3],5 (12.5) %
same,"Treatment-emergent AE: Dizziness, Grade 1-2 (%)",[2]; [3],5 (12.5) %
same,"Treatment-emergent AE: Dyspnea, All grades (%)",[2]; [3],10 (25) %
same,"Treatment-emergent AE: Dyspnea, Grace 3-4 (%)",[2]; [3],2 (5) %
same,"Treatment-emergent AE: Dyspnea, Grade 1-2 (%)",[2]; [3],8 (20) %
same,"Treatment-emergent AE: Edema, All grades (%)",[2]; [3],8 (20) %
same,"Treatment-emergent AE: Edema, Grace 3-4 (%)",[2]; [3],2 (5) %
same,"Treatment-emergent AE: Edema, Grade 1-2 (%)",[2]; [3],6 (15) %
same,"Treatment-emergent AE: Epistaxis, All grades (%)",[2]; [3],6 (15) %
same,"Treatment-emergent AE: Epistaxis, Grade 1-2 (%)",[2]; [3],6 (15) %
same,"Treatment-emergent AE: Fatigue, All grades (%)",[2]; [3],14 (35) %
same,"Treatment-emergent AE: Fatigue, Grade 1-2 (%)",[2]; [3],14 (35) %
same,"Treatment-emergent AE: Febrile neutropenia, All grades (%)",[2]; [3],12 (30) %
same,"Treatment-emergent AE: Headache, All grades (%)",[2]; [3],4 (10) %
same,"Treatment-emergent AE: Headache, Grade 1-2 (%)",[2]; [3],4 (10) %
same,"Treatment-emergent AE: Leukopenia, All grades (%)",[2]; [3],5 (12.5) %
same,"Treatment-emergent AE: Leukopenia, Grace 3-4 (%)",[2]; [3],12.5% and 5 (12.5) %
same,"Treatment-emergent AE: Lung infection, All grades (%)",[2]; [3],4 (10) %
same,"Treatment-emergent AE: Lung infection, Grace 3-4 (%)",[2]; [3],4 (10) %
same,"Treatment-emergent AE: Nausea/vomiting, All grades (%)",[2]; [3],12 (30) %
same,"Treatment-emergent AE: Nausea/vomiting, Grade 1-2 (%)",[2]; [3],12 (30) %
same,"Treatment-emergent AE: Neutropenia, All grades (%)",[2]; [3],10 (25) %
same,"Treatment-emergent AE: Oropharyngeal pain, All grades (%)",[2]; [3],4 (10) %
same,"Treatment-emergent AE: Oropharyngeal pain, Grade 1-2 (%)",[2]; [3],4 (10) %
same,"Treatment-emergent AE: Pyrexia, All grades (%)",[2]; [3],5 (12.5) %
same,"Treatment-emergent AE: Pyrexia, Grade 1-2 (%)",[2]; [3],5 (12.5) %
same,"Treatment-emergent AE: Rash/pruritus, All grades (%)",[2]; [3],11 (27.5) %
same,"Treatment-emergent AE: Rash/pruritus, Grace 3-4 (%)",[2]; [3],1 (2.5) %
same,"Treatment-emergent AE: Rash/pruritus, Grade 1-2 (%)",[2]; [3],10 (25) %
same,"Treatment-emergent AE: Stomatitis, All grades (%)",[2]; [3],9 (22.5) %
same,"Treatment-emergent AE: Stomatitis, Grace 3-4 (%)",[2]; [3],12.5% and 5 (12.5) %
same,"Treatment-emergent AE: Stomatitis, Grade 1-2 (%)",[2]; [3],4 (10) %
same,"Treatment-emergent AE: Thrombocytopenia, All grades (%)",[2]; [3],12 (30) %
same,"Treatment-emergent AE: Thrombocytopenia, Grade 1-2 (%)",[2]; [3],2 (5) %
same,G3 and G4 AE possibly related to onvansertib: anemia,"[2]; all patients, N = 40",12.5%
same,G3 and G4 AE possibly related to onvansertib: leukopenia,"[2]; all patients, N = 40",5%
same,G3 and G4 AE possibly related to onvansertib: neutropenia,"[2]; all patients, N = 40",15%
same,G3 and G4 AE possibly related to onvansertib: thrombocytopenia,"[2]; all patients, N = 40",12.5%
same,patients experiencing a DLT during the first cycle,"[2]; arm B (decitabine), dose level 6 (90 mg/m^2), grade 3 mucositis and grade 4 rash",2 of 6 and 2 of the 6
same,MTD of onvansertib in combination with decitabine,"[2]; arm B, oral days 1-5 + decitabine 20 mg/m^2 IV days 1-5, 28-day cycle",60 mg/m^2
same,DLTs,"[2]; first five dose levels (12-60 mg/m^2), both arms (LDAC, decitabine)",no DLTs reported
same,tolerability,"[2]; first five dose levels (12-60 mg/m^2), with LDAC or decitabine",well tolerated
same,skin toxicities,[2]; higher incidence and higher grade at 90 mg/m^2,observed at the last two dose levels of onvansertib (60 and 90 mg/m^2)
same,SAEs considered as possibly related to onvansertib,[2]; of 71 SAEs,13%
same,patients with dose reduction of onvansertib due to hematologic toxicities,"[2]; one from 18 mg/m^2, one from 27 mg/m^2 dose level",Two
same,patients with SAEs,"[2]; phase Ib, both arms",33 patients
same,total serious AEs (SAE) reported,"[2]; phase Ib, both arms",71
same,Serious adverse event Aphasia: Number of events,[2]; [4],1
same,Serious adverse event Aphasia: Number of patients,[2]; [4],1
same,Serious adverse event Appendicitis: Number of events,[2]; [4],1
same,Serious adverse event Appendicitis: Number of patients,[2]; [4],1
same,Serious adverse event Arthralgia: Number of events,[2]; [4],1
same,Serious adverse event Arthralgia: Number of patients,[2]; [4],1
same,Serious adverse event Asthenia: Number of events,[2]; [4],1
same,Serious adverse event Asthenia: Number of patients,[2]; [4],1
same,Serious adverse event Atrial fibrillation: Number of events,[2]; [4],1
same,Serious adverse event Atrial fibrillation: Number of patients,[2]; [4],1
same,Serious adverse event Back pain: Number of events,[2]; [4],1
same,Serious adverse event Back pain: Number of patients,[2]; [4],1
same,Serious adverse event Disease progression: Number of events,[2]; [4],1
same,Serious adverse event Disease progression: Number of patients,[2]; [4],1
same,Serious adverse event Dyspnea: Number of events,[2]; [4],1
same,Serious adverse event Dyspnea: Number of patients,[2]; [4],1
same,Serious adverse event Edema peripheral: Number of events,[2]; [4],1
same,Serious adverse event Edema peripheral: Number of patients,[2]; [4],1
same,Serious adverse event Face edema: Number of events,[2]; [4],1
same,Serious adverse event Face edema: Number of patients,[2]; [4],1
same,Serious adverse event Febrile neutropenia: Number of events,[2]; [4],25
same,Serious adverse event Febrile neutropenia: Number of patients,[2]; [4],17
same,Serious adverse event Hematuria: Number of events,[2]; [4],1
same,Serious adverse event Hematuria: Number of patients,[2]; [4],1
same,Serious adverse event Hemorrhage intracranial: Number of events,[2]; [4],1
same,Serious adverse event Hemorrhage intracranial: Number of patients,[2]; [4],1
same,Serious adverse event Hyponatremia: Number of events,[2]; [4],1
same,Serious adverse event Hyponatremia: Number of patients,[2]; [4],1
same,Serious adverse event Infusion related reaction: Number of events,[2]; [4],1
same,Serious adverse event Infusion related reaction: Number of patients,[2]; [4],1
same,Serious adverse event Leukemic infiltration: Number of events,[2]; [4],1
same,Serious adverse event Leukemic infiltration: Number of patients,[2]; [4],1
same,Serious adverse event Lower gastrointestinal hemorrhage: Number of events,[2]; [4],1
same,Serious adverse event Lower gastrointestinal hemorrhage: Number of patients,[2]; [4],1
same,Serious adverse event Lung consolidation: Number of events,[2]; [4],1
same,Serious adverse event Lung consolidation: Number of patients,[2]; [4],1
same,Serious adverse event Lung infection: Number of events,[2]; [4],5
same,Serious adverse event Lung infection: Number of patients,[2]; [4],5
same,Serious adverse event Neck pain: Number of events,[2]; [4],1
same,Serious adverse event Neck pain: Number of patients,[2]; [4],1
same,Serious adverse event Neutrophil count decreased: Number of events,[2]; [4],1
same,Serious adverse event Neutrophil count decreased: Number of patients,[2]; [4],1
same,Serious adverse event Pain in jaw: Number of events,[2]; [4],1
same,Serious adverse event Pain in jaw: Number of patients,[2]; [4],1
same,Serious adverse event Palmar-plantar erythrodysaesthesia syndrome: Number of events,[2]; [4],1
same,Serious adverse event Palmar-plantar erythrodysaesthesia syndrome: Number of patients,[2]; [4],1
same,Serious adverse event Pharyngeal edema: Number of events,[2]; [4],1
same,Serious adverse event Pharyngeal edema: Number of patients,[2]; [4],1
same,Serious adverse event Physical deconditioning: Number of events,[2]; [4],1
same,Serious adverse event Physical deconditioning: Number of patients,[2]; [4],1
same,Serious adverse event Pleural effusion: Number of events,[2]; [4],1
same,Serious adverse event Pleural effusion: Number of patients,[2]; [4],1
same,Serious adverse event Pneumonia fungal: Number of events,[2]; [4],1
same,Serious adverse event Pneumonia fungal: Number of patients,[2]; [4],1
same,Serious adverse event Pneumonia: Number of events,[2]; [4],3
same,Serious adverse event Pneumonia: Number of patients,[2]; [4],3
same,Serious adverse event Pulmonary mass: Number of events,[2]; [4],1
same,Serious adverse event Pulmonary mass: Number of patients,[2]; [4],1
same,Serious adverse event Pyrexia: Number of events,[2]; [4],2
same,Serious adverse event Pyrexia: Number of patients,[2]; [4],2
same,Serious adverse event Rash maculo-papular: Number of events,[2]; [4],1
same,Serious adverse event Rash maculo-papular: Number of patients,[2]; [4],1
same,Serious adverse event Septic shock: Number of events,[2]; [4],1
same,Serious adverse event Septic shock: Number of patients,[2]; [4],1
same,Serious adverse event Seroma: Number of events,[2]; [4],1
same,Serious adverse event Seroma: Number of patients,[2]; [4],1
same,Serious adverse event Skin lesion: Number of events,[2]; [4],1
same,Serious adverse event Skin lesion: Number of patients,[2]; [4],1
same,Serious adverse event Soft tissue infection: Number of events,[2]; [4],1
same,Serious adverse event Soft tissue infection: Number of patients,[2]; [4],1
same,Serious adverse event Staphylococcal bacteremia: Number of events,[2]; [4],1
same,Serious adverse event Staphylococcal bacteremia: Number of patients,[2]; [4],1
same,Serious adverse event Stomatitis: Number of events,[2]; [4],1
same,Serious adverse event Stomatitis: Number of patients,[2]; [4],1
same,Serious adverse event Tumor lysis syndrome: Number of events,[2]; [4],1
same,Serious adverse event Tumor lysis syndrome: Number of patients,[2]; [4],1
same,Serious adverse event Urine output decreased: Number of events,[2]; [4],1
same,Serious adverse event Urine output decreased: Number of patients,[2]; [4],1
same,deaths while on treatment,"[2]; phase Ib, all related to AML or its complications",Three
